{"source": "patent US20030153951A1", "about": "“Methods and devices for treating arrhythmias using defibrillation shocks” (priority 2002, published 2003)", "key": {"[1]": {"assay": "Systolic blood pressure monitored during the defibrillation threshold study", "type": "in vivo", "settings": "pigs", "description": "(§1) Six healthy pigs (30-35 kg) of either sex were anesthetized, monitored, and maintained under physiologic conditions. See, Chattipakorn et al. (2000). Two catheter-mounted platinum coated titanium coil electrodes were used as defibrillating electrodes. A 34-mm catheter was inserted into the right ventricular (RV) apex and served as the cathode for the first phase of the biphasic shock. […] The position of the catheters was verified with fluoroscopy. The blood pressure and heart rate were monitored continuously throughout the entire study.\nThe defibrillation threshold was determined 4 times during 4 different conditions in this study. The defibrillation threshold in each group was determined using a 3-reversal up/down protocol. See Chattipakorn et al. The first defibrillation threshold was determined at the beginning of the study. This defibrillation threshold was used as a control defibrillation threshold (control-DFT). […] The second defibrillation threshold (drug-DFT) was determined 15 minutes after the application of Flunarizine. After the drug-DFT was obtained, the administration of Flunarizine was terminated while the blood pressure and heart rate were monitored. The third defibrillation threshold (washout-DFT) was determined again when the blood pressure returned to the control level which normally took 60 minutes after the termination of the drug. […]"}, "ventricular fibrillation": {"system": "ventricular fibrillation", "assay": "Defibrillation threshold (3-reversal up/down protocol) after electrically induced ventricular fibrillation in anesthetized pigs", "type": "in vivo", "description": "as §1\nVentricular fibrillation was induced by 60-Hz alternating current delivered via an electrode at the tip of the RV catheter. After 10 seconds of ventricular fibrillation, defibrillation was attempted with 10-ms biphasic truncated exponential shocks. Delivered voltage and current were recorded on a waveform analyzer and total delivered energy was calculated. A minimum of 4 min was allowed to elapse between ventricular fibrillation episodes.\nThe defibrillation threshold was determined 4 times during 4 different conditions in this study. The defibrillation threshold in each group was determined using a 3-reversal up/down protocol. See Chattipakorn et al. The first defibrillation threshold was determined at the beginning of the study. This defibrillation threshold was used as a control defibrillation threshold (control-DFT). Then, Flunarizine, a delayed afterdepolarization inhibitor, was injected intravenously as a bolus (2 mg/kg) and maintenance (4 mg/kg/hr) dose. The second defibrillation threshold (drug-DFT) was determined 15 minutes after the application of Flunarizine. After the drug-DFT was obtained, the administration of Flunarizine was terminated while the blood pressure and heart rate were monitored. The third defibrillation threshold (washout-DFT) was determined again when the blood pressure returned to the control level which normally took 60 minutes after the termination of the drug.\nValues are shown as mean standard deviation. Comparisons of data among different defibrillation threshold groups were performed using an analysis of variance. When statistical significance was found, individual differences were analyzed with a Fisher's post-hoc test. Differences were considered significant when P<0.05."}}}
{"smiles": "Fc1ccc(C(c2ccc(F)cc2)N2CCN(C/C=C/c3ccccc3)CC2)cc1", "note": "[Flunarizine]", "values": [{"measurement": "systolic blood pressure", "setting": "[1]; after i.v. injection (bolus 2 mg/kg + 4 mg/kg/hr), mean ± SD, control 102±11 mmHg", "value": "76±10", "unit": "mmHg"}, {"measurement": "reduction of the systolic blood pressure", "setting": "[1]; vs control", "value": "~26", "unit": "%"}, {"measurement": "washout defibrillation threshold compared with control-DFT", "setting": "ventricular fibrillation; after termination of drug, when blood pressure returned to control level (normally 60 minutes)", "value": "not significantly different from the control-DFT"}, {"measurement": "reduction of the defibrillation threshold by energy", "setting": "ventricular fibrillation; drug-DFT vs control-DFT", "value": "approximately 40%"}, {"measurement": "reduction of the defibrillation threshold by leading edge voltage", "setting": "ventricular fibrillation; drug-DFT vs control-DFT", "value": "approximately 22%"}, {"measurement": "drug-DFT, delivered leading edge voltage", "setting": "ventricular fibrillation; i.v. bolus 2 mg/kg + maintenance 4 mg/kg/hr, determined 15 minutes after application, 10-ms biphasic shocks, mean ± SD, control-DFT 623±120 volts", "value": "485±82", "unit": "volts"}, {"measurement": "drug-DFT, total delivered energy", "setting": "ventricular fibrillation; i.v. bolus 2 mg/kg + maintenance 4 mg/kg/hr, determined 15 minutes after application, mean ± SD, control-DFT 23±4 joules", "value": "14±3", "unit": "joules"}]}
